Data as given in ChEMBL document CHEMBL1629455, “Discovery of a novel class of biphenyl pyrazole sodium channel blockers for treatment of neuropathic pain” (Bioorg Med Chem Lett, 2010).

How the values were obtained:
[1] = target: T1, Sodium channel protein type 9 subunit alpha (Homo sapiens, UniProt Q15858); assay: Inhibition of human Nav1.7 at 10 uM by VIPR assay
Target sequence in this assay (Q15858 whole entry, looked up): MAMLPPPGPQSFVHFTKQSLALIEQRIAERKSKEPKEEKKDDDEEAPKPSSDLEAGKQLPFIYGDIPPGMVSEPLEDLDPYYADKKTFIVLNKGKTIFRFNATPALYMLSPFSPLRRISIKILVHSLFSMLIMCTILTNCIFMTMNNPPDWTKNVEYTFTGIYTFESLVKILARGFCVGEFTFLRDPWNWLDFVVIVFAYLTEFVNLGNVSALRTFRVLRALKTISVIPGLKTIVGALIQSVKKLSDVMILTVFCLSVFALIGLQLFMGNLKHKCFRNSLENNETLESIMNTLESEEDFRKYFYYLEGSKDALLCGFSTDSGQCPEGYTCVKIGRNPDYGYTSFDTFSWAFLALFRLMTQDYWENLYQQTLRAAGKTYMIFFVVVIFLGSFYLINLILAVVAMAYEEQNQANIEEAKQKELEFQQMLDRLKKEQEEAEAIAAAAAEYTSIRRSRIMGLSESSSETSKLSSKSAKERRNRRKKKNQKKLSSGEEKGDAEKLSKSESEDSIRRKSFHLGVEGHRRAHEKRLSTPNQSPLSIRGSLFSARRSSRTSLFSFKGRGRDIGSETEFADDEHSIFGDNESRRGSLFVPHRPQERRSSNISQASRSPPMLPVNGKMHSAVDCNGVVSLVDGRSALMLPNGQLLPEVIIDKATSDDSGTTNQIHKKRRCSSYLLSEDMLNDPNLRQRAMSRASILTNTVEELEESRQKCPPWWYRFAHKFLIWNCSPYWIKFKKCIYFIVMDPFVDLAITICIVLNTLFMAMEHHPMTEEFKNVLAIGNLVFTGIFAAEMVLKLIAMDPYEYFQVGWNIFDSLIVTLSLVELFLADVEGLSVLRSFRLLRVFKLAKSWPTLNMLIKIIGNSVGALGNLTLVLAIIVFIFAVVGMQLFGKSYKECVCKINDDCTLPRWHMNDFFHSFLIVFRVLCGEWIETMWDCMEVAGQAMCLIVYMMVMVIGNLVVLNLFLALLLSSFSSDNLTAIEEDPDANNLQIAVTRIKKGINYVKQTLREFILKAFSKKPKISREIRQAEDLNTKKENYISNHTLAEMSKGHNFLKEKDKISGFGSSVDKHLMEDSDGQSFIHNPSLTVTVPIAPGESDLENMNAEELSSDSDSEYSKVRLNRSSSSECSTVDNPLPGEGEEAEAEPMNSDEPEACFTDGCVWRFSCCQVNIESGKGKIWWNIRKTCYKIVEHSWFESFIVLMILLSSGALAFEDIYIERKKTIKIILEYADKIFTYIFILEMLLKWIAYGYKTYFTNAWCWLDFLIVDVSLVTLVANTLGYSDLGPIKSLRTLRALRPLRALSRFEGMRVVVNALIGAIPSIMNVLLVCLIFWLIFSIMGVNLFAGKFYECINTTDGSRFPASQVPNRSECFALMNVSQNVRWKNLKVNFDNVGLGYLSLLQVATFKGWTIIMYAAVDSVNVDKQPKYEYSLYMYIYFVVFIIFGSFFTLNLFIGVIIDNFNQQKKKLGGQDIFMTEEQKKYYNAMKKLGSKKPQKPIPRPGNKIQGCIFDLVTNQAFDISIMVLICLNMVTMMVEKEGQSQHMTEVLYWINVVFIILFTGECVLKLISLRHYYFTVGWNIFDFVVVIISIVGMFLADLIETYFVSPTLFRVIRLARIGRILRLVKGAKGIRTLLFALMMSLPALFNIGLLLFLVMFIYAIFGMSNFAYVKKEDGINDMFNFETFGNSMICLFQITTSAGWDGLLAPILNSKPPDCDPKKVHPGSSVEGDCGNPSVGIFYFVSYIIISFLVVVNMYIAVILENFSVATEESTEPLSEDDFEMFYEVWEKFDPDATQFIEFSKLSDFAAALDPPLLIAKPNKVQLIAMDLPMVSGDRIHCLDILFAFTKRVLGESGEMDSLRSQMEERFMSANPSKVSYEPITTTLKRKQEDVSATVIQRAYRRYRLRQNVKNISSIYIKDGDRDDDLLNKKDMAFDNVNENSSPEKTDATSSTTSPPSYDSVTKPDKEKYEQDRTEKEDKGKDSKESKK

[2] = target: hERG (KCNH2) (Homo sapiens, UniProt Q12809); assay: Inhibition of MK-0499 binding to human ERG at 10 uM; details: probe MK-0499
[3] = target: T1, Sodium channel protein type 9 subunit alpha; assay: Inhibition of human Nav1.7 by VIPR assay
Target sequence in this assay (Q15858 whole entry): as the sequence (Q15858 whole entry, looked up) above

[4] = tested on: Rattus norvegicus; assay: Antiallodynic activity in rat spinal nerve ligation model of neuropathic pain assessed as reversal of allodynia at 10 mg/kg, po after 2 hrs; type: functional
[5] = tested on: Rattus norvegicus; assay: Antiallodynic activity in rat spinal nerve ligation model of neuropathic pain assessed as reversal of allodynia at 10 mg/kg, po after 4 hrs; type: functional
[6] = target: Sodium channel protein type 10 subunit alpha (Homo sapiens, UniProt Q9Y5Y9); assay: Inhibition of human Nav1.8 by VIPR assay
Chain of Sodium channel protein type 10 subunit alpha (Q9Y5Y9 whole entry): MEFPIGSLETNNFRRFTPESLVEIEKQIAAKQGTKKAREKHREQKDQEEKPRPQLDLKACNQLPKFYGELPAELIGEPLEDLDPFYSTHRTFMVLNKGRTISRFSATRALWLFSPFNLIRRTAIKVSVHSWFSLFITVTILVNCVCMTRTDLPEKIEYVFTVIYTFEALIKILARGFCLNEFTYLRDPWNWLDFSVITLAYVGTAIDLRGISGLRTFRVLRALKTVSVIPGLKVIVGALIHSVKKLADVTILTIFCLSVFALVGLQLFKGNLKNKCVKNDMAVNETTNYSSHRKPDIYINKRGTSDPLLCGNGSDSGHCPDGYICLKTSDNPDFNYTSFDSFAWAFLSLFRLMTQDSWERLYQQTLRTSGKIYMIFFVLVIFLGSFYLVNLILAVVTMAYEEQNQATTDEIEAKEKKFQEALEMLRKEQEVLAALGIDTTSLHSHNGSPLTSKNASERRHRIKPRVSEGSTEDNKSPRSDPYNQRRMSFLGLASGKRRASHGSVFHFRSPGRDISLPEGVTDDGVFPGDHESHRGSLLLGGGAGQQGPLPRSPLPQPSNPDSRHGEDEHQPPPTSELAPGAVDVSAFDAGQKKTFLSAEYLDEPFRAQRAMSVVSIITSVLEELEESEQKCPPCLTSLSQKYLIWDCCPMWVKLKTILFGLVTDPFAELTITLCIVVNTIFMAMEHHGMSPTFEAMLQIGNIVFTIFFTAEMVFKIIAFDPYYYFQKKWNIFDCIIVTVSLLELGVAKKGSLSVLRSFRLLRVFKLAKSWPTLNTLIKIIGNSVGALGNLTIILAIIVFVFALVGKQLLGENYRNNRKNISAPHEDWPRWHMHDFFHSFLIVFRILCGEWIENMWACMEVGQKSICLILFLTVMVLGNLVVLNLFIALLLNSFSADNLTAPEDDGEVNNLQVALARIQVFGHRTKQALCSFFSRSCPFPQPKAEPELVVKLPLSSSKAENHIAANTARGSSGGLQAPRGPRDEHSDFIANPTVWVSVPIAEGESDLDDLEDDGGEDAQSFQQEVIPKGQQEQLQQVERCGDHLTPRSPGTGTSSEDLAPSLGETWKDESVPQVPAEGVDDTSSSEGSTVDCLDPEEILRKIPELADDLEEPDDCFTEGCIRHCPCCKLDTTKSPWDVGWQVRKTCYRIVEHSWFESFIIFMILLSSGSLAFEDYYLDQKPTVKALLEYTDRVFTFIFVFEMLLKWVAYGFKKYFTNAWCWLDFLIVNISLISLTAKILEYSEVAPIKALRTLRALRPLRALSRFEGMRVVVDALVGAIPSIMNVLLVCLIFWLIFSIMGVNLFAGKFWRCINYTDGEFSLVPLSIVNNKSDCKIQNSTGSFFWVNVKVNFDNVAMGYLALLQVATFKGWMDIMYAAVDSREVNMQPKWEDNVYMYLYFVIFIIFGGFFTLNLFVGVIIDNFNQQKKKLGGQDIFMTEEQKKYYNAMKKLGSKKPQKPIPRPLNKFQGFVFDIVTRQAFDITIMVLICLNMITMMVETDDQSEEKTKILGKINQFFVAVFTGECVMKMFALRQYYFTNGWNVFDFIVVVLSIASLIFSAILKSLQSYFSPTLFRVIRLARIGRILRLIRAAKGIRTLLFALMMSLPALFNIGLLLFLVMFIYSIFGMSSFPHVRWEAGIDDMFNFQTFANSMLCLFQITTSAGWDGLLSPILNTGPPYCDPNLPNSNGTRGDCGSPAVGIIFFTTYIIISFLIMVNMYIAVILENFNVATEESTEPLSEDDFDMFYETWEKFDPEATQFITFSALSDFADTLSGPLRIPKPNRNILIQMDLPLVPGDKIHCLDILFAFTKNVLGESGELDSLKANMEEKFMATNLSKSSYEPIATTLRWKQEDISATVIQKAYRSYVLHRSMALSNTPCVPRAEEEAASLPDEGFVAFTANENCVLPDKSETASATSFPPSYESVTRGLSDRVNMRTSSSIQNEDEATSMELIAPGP

Chain of hERG (KCNH2) (Q12809 whole entry): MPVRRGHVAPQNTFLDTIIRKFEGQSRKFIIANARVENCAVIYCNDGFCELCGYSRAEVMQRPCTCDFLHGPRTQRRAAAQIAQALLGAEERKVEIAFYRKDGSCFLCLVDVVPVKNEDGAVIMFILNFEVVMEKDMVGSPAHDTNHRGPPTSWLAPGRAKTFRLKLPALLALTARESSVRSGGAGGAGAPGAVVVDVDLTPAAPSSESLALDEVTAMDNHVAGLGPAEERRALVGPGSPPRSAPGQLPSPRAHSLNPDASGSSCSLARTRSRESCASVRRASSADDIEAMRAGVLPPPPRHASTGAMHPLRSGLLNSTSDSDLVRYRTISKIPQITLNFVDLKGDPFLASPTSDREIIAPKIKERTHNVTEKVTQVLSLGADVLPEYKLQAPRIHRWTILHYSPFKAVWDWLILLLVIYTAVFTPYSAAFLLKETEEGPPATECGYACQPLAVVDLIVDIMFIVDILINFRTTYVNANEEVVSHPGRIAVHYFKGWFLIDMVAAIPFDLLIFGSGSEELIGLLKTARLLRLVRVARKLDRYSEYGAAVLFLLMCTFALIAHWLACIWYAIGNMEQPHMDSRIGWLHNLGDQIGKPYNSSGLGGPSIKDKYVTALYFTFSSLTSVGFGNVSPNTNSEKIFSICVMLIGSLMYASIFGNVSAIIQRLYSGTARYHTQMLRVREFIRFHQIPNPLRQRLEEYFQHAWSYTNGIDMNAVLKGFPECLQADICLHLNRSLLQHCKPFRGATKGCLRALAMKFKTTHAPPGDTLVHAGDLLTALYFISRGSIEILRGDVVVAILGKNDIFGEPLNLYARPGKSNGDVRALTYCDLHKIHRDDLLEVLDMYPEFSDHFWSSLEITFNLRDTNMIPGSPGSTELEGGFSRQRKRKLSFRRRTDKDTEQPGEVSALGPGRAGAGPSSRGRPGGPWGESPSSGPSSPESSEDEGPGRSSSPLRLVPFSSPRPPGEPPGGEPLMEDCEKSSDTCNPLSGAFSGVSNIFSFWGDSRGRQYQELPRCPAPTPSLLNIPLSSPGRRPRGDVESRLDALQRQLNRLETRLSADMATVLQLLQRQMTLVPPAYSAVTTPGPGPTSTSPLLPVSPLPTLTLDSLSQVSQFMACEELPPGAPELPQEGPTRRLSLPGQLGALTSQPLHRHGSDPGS

Compound	inhibition [1]	inhibition at 10 µM [2]	IC50 [3]	Activity [4]	Activity [5]	IC50 [6]	Ki [3]
CCNC(=O)c1cc(C(=O)NCC)n(-c2cccc(-c3ccccc3OC(F)(F)F)c2)n1	1%	27%	–	–	–	–	–
NC(=O)c1cc(C(N)=O)n(-c2cccc(-c3ccccc3C(F)(F)F)c2)n1	–	–	155 nM	9%	2%	915 nM	–
NC(=O)c1cc(C(N)=O)n(-c2cccc(-c3cccc(Cl)c3Cl)c2)n1	–	–	195 nM	15%	7%	–	–
NC(=O)c1cc(C(N)=O)n(-c2cccc(-c3ccc(F)cc3OCC(F)(F)C(F)(F)F)c2)n1	–	–	106 nM	28%	8%	–	–
NC(=O)c1cc(C(N)=O)n(-c2cccc(-c3c(F)cccc3OC(F)(F)F)c2)n1	–	–	106 nM	15%	9%	802 nM	–
Cc1c(C(N)=O)c(C(N)=O)nn1-c1cccc(-c2ccccc2OC(F)(F)F)c1	–	15%	185 nM	16%	8%	–	–
NC(=O)c1cc(C(N)=O)n(-c2cccc(-c3cccc(OC(F)(F)F)c3OCC(F)(F)C(F)(F)F)c2)n1	–	–	64 nM	6%	3%	203 nM	–
NC(=O)c1cc(C(N)=O)n(-c2ccc(F)c(-c3ccccc3OC(F)(F)F)c2)n1	–	–	477 nM	–	–	–	–
NC(=O)c1nn(-c2cccc(-c3ccccc3OC(F)(F)F)c2)c(C(N)=O)c1C(N)=O	–	49%	115 nM	–	–	–	–
NC(=O)c1cc(C(N)=O)n(-c2cccc(-c3cccc(C(F)(F)F)c3OCC(F)(F)C(F)(F)F)c2)n1	–	–	147 nM	22%	8%	299 nM	–
NC(=O)c1cn(-c2cccc(-c3ccccc3OC(F)(F)F)c2)nc1C(N)=O	–	1%	49 nM	18%	8%	–	–
CCNC(=O)c1cc(C(N)=O)nn1-c1cccc(-c2ccccc2OC(F)(F)F)c1	–	20%	29 nM	–	–	–	–
NC(=O)c1cc(C(N)=O)n(-c2cccc(-c3cc(F)ccc3OCC(F)(F)C(F)(F)F)c2)n1	–	–	46 nM	25%	9%	149 nM	–
Cc1cc(C(N)=O)nn1-c1cccc(-c2ccccc2OC(F)(F)F)c1	–	69%	–	33%	11%	–	–
NC(=O)c1cc(C(N)=O)n(-c2cccc(-c3c(C(F)(F)F)cccc3C(F)(F)F)c2)n1	–	–	715 nM	–	–	–	–
NC(=O)c1nc(-c2cccc(-c3ccccc3OC(F)(F)F)c2)cs1	–	–	–	–	–	–	230 nM
NC(=O)c1cc(C(N)=O)n(-c2cccc(-c3cccc(OC(F)(F)F)c3F)c2)n1	–	–	282 nM	28%	8%	1510 nM	–
NC(=O)c1cc(C(N)=O)n(-c2cccc(-c3ccccc3OC(F)(F)F)c2)n1	–	21%	132 nM	35%	19%	554 nM	–
NC(=O)c1cc(C(N)=O)n(-c2cccc(-c3cc(C(F)(F)F)ccc3OC(F)(F)F)c2)n1	–	–	325 nM	29%	6%	1180 nM	–
CCOC(=O)c1cc(C(N)=O)nn1-c1cccc(-c2ccccc2OC(F)(F)F)c1	–	72%	10 nM	–	–	–	–
Cc1cc(C(N)=O)nn1-c1cccc(-c2ccc(C(F)(F)F)cc2C(F)(F)F)c1	–	–	–	–	–	–	340 nM
